# The source made the active and inactive calls. The calls are words filed in the database; no cut-off is given here.
# Key:
# DT-22 [1] = assay: Antitumor activity in human DT-22 cells xenografted NSG mouse assessed as reduction in tumor growth at 40 mg/kg, sc administered daily for 4 days followed by 20 mg/kg every third day until day 13 and followed by 10 mg/kg every third day; assay type: functional, organism-based; settings: time 4.0 day
# MCF-7/TAMR-1 = assay: Antiproliferative activity against human MCF-7/TAMR-1 cells measured by WST-1 assay; assay type: functional, cell-based
# DT-22 [2] = assay: Antitumor activity in human DT-22 cells xenografted NSG mouse assessed as reduction in tumor growth at 5 to 10 mg/kg, sc administered daily until day 21 and then every other day; assay type: functional, organism-based; settings: dose 5-10 mg/kg
# DT-22 [3] = assay: Antitumor activity in human DT-22 cells xenografted NSG mouse assessed as reduction in total FOXM1 expression at 5 to 10 mg/kg, sc administered daily until day 21 and then every other day; assay type: functional, organism-based; settings: dose 5-10 mg/kg
# DT-22 [4] = assay: Antitumor activity in human DT-22 cells xenografted NSG mouse assessed as reduction in FOXM1B expression at 5 to 10 mg/kg, sc administered daily until day 21 and then every other day; assay type: functional, organism-based; settings: dose 5-10 mg/kg
# DT-22 [5] = assay: Antitumor activity in human DT-22 cells xenografted NSG mouse assessed as reduction in FOXM1C expression at 5 to 10 mg/kg, sc administered daily until day 21 and then every other day; assay type: functional, organism-based; settings: dose 5-10 mg/kg
# DT-22 [6] = assay: Antitumor activity in human DT-22 cells xenografted NSG mouse assessed as reduction in CENPF expression at 5 to 10 mg/kg, sc administered daily until day 21 and then every other day; assay type: functional, organism-based; settings: dose 5-10 mg/kg
# [7] = Half-life in female CD-1 mouse at 60 mg/kg, sc administered as single dose and measured by LC-MS/MS analysis; assay type: ADME, organism-based; settings: in vivo
# [8] = AUC (0 to 48 hrs) in female CD-1 mouse at 40 mg/kg, sc administered as single dose and measured by LC-MS/MS analysis; assay type: ADME, organism-based; set-up: time < 48 hr, route subcutaneous, dose 40 mg/kg; settings: in vivo
# [9] = Half-life in female CD-1 mouse at 40 mg/kg, sc administered as single dose and measured by LC-MS/MS analysis; assay type: ADME, organism-based; settings: in vivo
# DT-22 [10] = assay: Antitumor activity in human DT-22-Luc cells xenografted female NSG mouse assessed as reduction in tumor growth at 20 mg/kg, sc administered daily until day 20 and followed by 10 mg/kg every other day; assay type: functional, organism-based
# [11] = Toxicity in human DT-22-Luc cells xenografted female NSG mouse assessed as as effect on body weight at 20 mg/kg, sc administered daily until day 20 and followed by 10 mg/kg every other day; assay type: organism-based; settings: in vivo
# [12] = Half-life in female CD-1 mouse at 20 mg/kg, po administered as single dose and measured by LC-MS/MS analysis; assay type: ADME, organism-based; settings: in vivo
# [13] = molecular target: T1, Forkhead box protein M1 (Homo sapiens) (UniProt Q08050); assay: Inhibition of FOXM1 in human ER-positive MCF7 cells at 8 uM assessed as reduction in FOXM1C expression measured by qRT-PCR method; assay type: cell-based
# T1 sequence (whole entry): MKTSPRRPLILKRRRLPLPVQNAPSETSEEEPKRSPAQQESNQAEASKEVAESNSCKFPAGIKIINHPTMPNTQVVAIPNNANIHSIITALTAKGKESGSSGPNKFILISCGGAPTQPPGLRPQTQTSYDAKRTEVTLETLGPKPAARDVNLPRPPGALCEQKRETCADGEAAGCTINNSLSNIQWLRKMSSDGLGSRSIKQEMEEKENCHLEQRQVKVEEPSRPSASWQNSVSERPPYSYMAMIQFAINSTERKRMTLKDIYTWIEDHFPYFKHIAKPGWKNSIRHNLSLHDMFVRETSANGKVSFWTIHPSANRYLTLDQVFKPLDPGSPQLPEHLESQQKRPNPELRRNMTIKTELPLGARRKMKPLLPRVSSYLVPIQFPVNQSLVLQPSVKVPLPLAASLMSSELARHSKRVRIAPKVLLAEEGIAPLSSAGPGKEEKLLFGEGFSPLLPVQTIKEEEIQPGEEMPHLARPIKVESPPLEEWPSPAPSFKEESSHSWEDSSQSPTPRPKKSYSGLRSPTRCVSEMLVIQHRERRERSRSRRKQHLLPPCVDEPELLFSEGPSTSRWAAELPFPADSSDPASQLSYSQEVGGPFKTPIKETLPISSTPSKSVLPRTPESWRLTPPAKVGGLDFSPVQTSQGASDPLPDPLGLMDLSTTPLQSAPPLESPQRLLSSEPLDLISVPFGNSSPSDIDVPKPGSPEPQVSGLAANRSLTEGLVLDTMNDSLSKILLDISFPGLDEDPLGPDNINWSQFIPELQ
# [14] = molecular target: T1, Forkhead box protein M1 (Homo sapiens); assay: Inhibition of FOXM1 in human ER-positive MCF7 cells at 8 uM assessed as reduction in AURKB expression measured by qRT-PCR method; assay type: cell-based
# [15] = molecular target: T1, Forkhead box protein M1 (Homo sapiens); assay: Inhibition of FOXM1 in human ER-positive MCF7 cells at 8 uM assessed as reduction in CCNB1 expression measured by qRT-PCR method; assay type: cell-based
# [16] = molecular target: T1, Forkhead box protein M1 (Homo sapiens); assay: Inhibition of FOXM1 in human ER-positive MCF7 cells at 8 uM assessed as reduction in PLK1 expression measured by qRT-PCR method; assay type: cell-based
# [17] = molecular target: T1, Forkhead box protein M1 (Homo sapiens); assay: Inhibition of FOXM1 in human ER-positive MCF7 cells at 8 uM assessed as increase in ATF3 expression measured by qRT-PCR method; assay type: cell-based
# [18] = molecular target: T1, Forkhead box protein M1 (Homo sapiens); assay: Inhibition of FOXM1 in human ER-negative DT-22 cells at 8 uM assessed as reduction in FOXM1C expression measured by qRT-PCR method; assay type: cell-based
# [19] = molecular target: T1, Forkhead box protein M1 (Homo sapiens); assay: Inhibition of FOXM1 in human ER-negative DT-22 cells at 8 uM assessed as reduction in AURKB expression measured by qRT-PCR method; assay type: cell-based
# [20] = molecular target: T1, Forkhead box protein M1 (Homo sapiens); assay: Inhibition of FOXM1 in human ER-negative DT-22 cells at 8 uM assessed as reduction in CCNB1 expression measured by qRT-PCR method; assay type: cell-based
# [21] = molecular target: T1, Forkhead box protein M1 (Homo sapiens); assay: Inhibition of FOXM1 in human ER-negative DT-22 cells at 8 uM assessed as reduction in PLK1 expression measured by qRT-PCR method; assay type: cell-based
# [22] = molecular target: T1, Forkhead box protein M1 (Homo sapiens); assay: Inhibition of FOXM1 in human ER-negative DT-22 cells at 8 uM assessed as increase in ATF3 expression measured by qRT-PCR method; assay type: cell-based
# [23] = AUC in mouse at 20 mg/kg, sc measured by LC-MS/MS analysis; assay type: ADME, organism-based; set-up: dose 20 mg/kg; settings: in vivo
# [24] = Cmax in mouse at 20 mg/kg, sc measured by LC-MS/MS analysis; assay type: ADME, organism-based; set-up: route subcutaneous, dose 20 mg/kg; settings: in vivo
# [25] = Half-life in mouse at 20 mg/kg, sc measured by LC-MS/MS analysis; assay type: ADME, organism-based; settings: in vivo
# [26] = molecular target: T1, Forkhead box protein M1 (Homo sapiens); assay: Inhibition of FOXM1 in human ER-positive MCF7 cells at 5 uM assessed as reduction in FOXM1C expression measured by qRT-PCR method; assay type: cell-based
# [27] = molecular target: T1, Forkhead box protein M1 (Homo sapiens); assay: Inhibition of FOXM1 in human ER-positive MCF7 cells at 5 uM assessed as reduction in AURKB expression measured by qRT-PCR method; assay type: cell-based
# [28] = molecular target: T1, Forkhead box protein M1 (Homo sapiens); assay: Inhibition of FOXM1 in human ER-positive MCF7 cells at 5 uM assessed as reduction in CCNB1 expression measured by qRT-PCR method; assay type: cell-based
# [29] = molecular target: T1, Forkhead box protein M1 (Homo sapiens); assay: Inhibition of FOXM1 in human ER-positive MCF7 cells at 5 uM assessed as reduction in PLK1 expression measured by qRT-PCR method; assay type: cell-based
# [30] = molecular target: T1, Forkhead box protein M1 (Homo sapiens); assay: Inhibition of FOXM1 in human ER-positive MCF7 cells at 5 uM assessed as increase in ATF3 expression measured by qRT-PCR method; assay type: cell-based
# [31] = molecular target: T1, Forkhead box protein M1 (Homo sapiens); assay: Inhibition of FOXM1 in human ER-negative DT-22 cells at 5 uM assessed as reduction in FOXM1C expression measured by qRT-PCR method; assay type: cell-based
# [32] = molecular target: T1, Forkhead box protein M1 (Homo sapiens); assay: Inhibition of FOXM1 in human ER-negative DT-22 cells at 5 uM assessed as reduction in AURKB expression measured by qRT-PCR method; assay type: cell-based
# [33] = molecular target: T1, Forkhead box protein M1 (Homo sapiens); assay: Inhibition of FOXM1 in human ER-negative DT-22 cells at 5 uM assessed as reduction in CCNB1 expression measured by qRT-PCR method; assay type: cell-based
# [34] = molecular target: T1, Forkhead box protein M1 (Homo sapiens); assay: Inhibition of FOXM1 in human ER-negative DT-22 cells at 5 uM assessed as reduction in PLK1 expression measured by qRT-PCR method; assay type: cell-based
# [35] = molecular target: T1, Forkhead box protein M1 (Homo sapiens); assay: Inhibition of FOXM1 in human ER-negative DT-22 cells at 5 uM assessed as increase in ATF3 expression measured by qRT-PCR method; assay type: cell-based
# DT-22 [36] = assay: Antitumor activity in human DT-22 cells xenografted NSG mouse assessed as reduction in tumor growth at 100 mg/kg, po administered daily for 7 days; assay type: functional, organism-based; settings: time 7.0 day
# MCF7 = assay: Antitumor activity in human MCF7 cells xenografted ovariectomized NSG mouse assessed as reduction in tumor growth at 100 mg/kg, sc administered daily; assay type: functional, organism-based
# DT-22 [37] = assay: Antitumor activity in human DT-22-Luc cells xenografted female NSG mouse assessed as reduction in tumor growth at 2 to 6 mg/kg, sc; assay type: functional, organism-based; settings: dose 2-6 mg/kg
# [38] = Toxicity in human DT-22-Luc cells xenografted female NSG mouse assessed as as effect on body weight at 2 to 6 mg/kg, sc; assay type: organism-based; settings: in vivo, dose 2-6 mg/kg
structure (smiles),measurement,setting,value
C[N+]1(CCCCCCOc2ccc(C(c3ccc(OCCCCCC[N+]4(C)CCCCC4)cc3)=C3C4C[C@H]5C[C@@H](C4)C[C@H]3C5)cc2)CCCCC1,Activity,DT-22 [1],Active
C[N+]1(CCCCCCOc2ccc(C(c3ccc(OCCCCCC[N+]4(C)CCCCCC4)cc3)=C3C4C[C@H]5C[C@@H](C4)C[C@H]3C5)cc2)CCCCCC1,Activity,MCF-7/TAMR-1,Active
same,Activity,DT-22 [1],Active
same,Activity,DT-22 [2],Active
same,Activity,DT-22 [3],Active
same,Activity,DT-22 [4],Active
same,Activity,DT-22 [5],Active
same,Activity,DT-22 [6],Active
CN1CCN(CCCCCCOc2ccc(C(=C3C4CC5CC(C4)CC3C5)c3ccc(OCCCCCCN4CCN(C)CC4)cc3)cc2)CC1,half-life,[7],45.6 h
C[n+]1ccn(CCCCCCOc2ccc(C(=C3C4CC5CC(C4)CC3C5)c3ccc(Cl)cc3)cc2)c1.[I-],AUC(0-t) at 48 h,[8],150 µM·h
same,half-life,[9],36.8 h
C[N+]1(CCCCCCOc2ccc(C(c3ccc(Cl)cc3)=C3C4C[C@H]5C[C@@H](C4)C[C@H]3C5)cc2)CCCC1.[I-],half-life,[9],31.5 h
same,Activity,DT-22 [10],Active
same,Activity,[11],Non-Toxic
CCN(CC)CCCCCCOc1ccc(C(c2ccc(OCCCCCCN(CC)CC)cc2)=C2[C@H]3C[C@@H]4C[C@@H](C[C@H]2C4)C3)cc1,half-life,[12],61.8 h
Nc1c(C(=O)Nc2ccc(F)cc2)sc2nc(-c3cccs3)cc(C(F)(F)F)c12,inhibition,[13],Active
same,inhibition,[14],Active
same,inhibition,[15],Active
same,inhibition,[16],Active
same,inhibition,[17],Active
same,inhibition,[18],Active
same,inhibition,[19],Active
same,inhibition,[20],Active
same,inhibition,[21],Active
same,inhibition,[22],Active
same,AUC,[23],1.2 µM·h
same,Cmax,[24],40 nM
same,half-life,[25],21.8 h
Clc1ccc(C(=C2C3CC4CC(C3)CC2C4)c2ccc(OCCCCCCN3CCCC3)cc2)cc1,half-life,[9],26.7 h
same,inhibition,[26],Active
same,inhibition,[27],Active
same,inhibition,[28],Active
same,inhibition,[29],Active
same,inhibition,[30],Active
same,inhibition,[31],Active
same,inhibition,[32],Active
same,inhibition,[33],Active
same,inhibition,[34],Active
same,inhibition,[35],Active
same,Activity,DT-22 [36],Active
same,Activity,MCF7,Active
CC[N+](C)(CC)CCCCCCOc1ccc(C(c2ccc(OCCCCCC[N+](C)(CC)CC)cc2)=C2C3C[C@H]4C[C@@H](C3)C[C@H]2C4)cc1.[I-].[I-],half-life,[9],38.6 h
same,Activity,DT-22 [37],Active
same,Activity,[38],Non-Toxic
C[N+]1(CCCCCCOc2ccc(C(=C3C4CC5CC(C4)CC3C5)c3ccc(OCCCCCC[N+]4(C)CCCC4)cc3)cc2)CCCC1,Activity,DT-22 [1],Active
